Several values for one entry are separate records, joined by “and”; a condition that tells them apart may be missing. Identical values can stand only once.
Assays:
L1210 Mouse Leukemia = test: Antitumor activity against L1210 mouse leukemia inoculated i.p. in mice; type: in vivo, CDF₁ mouse; conditions: for Survival days (mean ± standard deviation) / T/C (%): CDF₁ mice; for Survival rate: living mice on the 30th day / mice in group
Method: Approximately 10⁵ cells of mouse leukemia L1210 which had been subcultured in DBA/2 mice were inoculated into the abdominal cavity of CDF₁ mouse (male, 6 weeks old, each group consisting of 6 to 10 mice). […] CDDP and CBDCA were tested as the positive control. Each complex tested was used in the form of a solution or suspension in 0.05% "Tween 80"-saline or in distilled water. Antitumor activity was evaluated based on the T/C value, calculated according to the following formula: [formula] The number of living mice was also recorded on the 30th day.

Slc:ICR mice = test: Acute toxicity test in mice (LD50, Miller-Tainter method); type: in vivo; conditions: intraperitoneal, Slc:ICR mice (male), death rate on the 14th day
Method: The acute toxicity test of the compounds of the present invention to mice were carried out by using CDDP as the control. Platinum complexes to be tested was administered intraperitoneally to Slc:ICR mice (male, 5 weeks old, 6 mice/group). Each complex was used in the form of a solution or suspension in a 0.05% "Tween 80" - saline. The LD₅₀ value was calculated by the Miller-Tainter method from the death rate on the 14th day from the date of the administration.

[1] = dose 2.5 mg/kg i.p. on Day 1, 5 and 9, 2.5 mg/kg
[2] = dose 5 mg/kg i.p. on Day 1, 5 and 9, 5 mg/kg
[3] = dose 7.5 mg/kg i.p. on Day 1, 5 and 9, 7.5 mg/kg
[4] = dose 1 mg/kg i.p. on Day 1, 5 and 9
[5] = dose 10 mg/kg i.p. on Day 1, 5 and 9
[6] = dose 25 mg/kg i.p. on Day 1, 5 and 9
[7] = dose 50 mg/kg i.p. on Day 1, 5 and 9
[8] = dose 100 mg/kg i.p. on Day 1, 5 and 9
[9] = dose 200 mg/kg i.p. on Day 1, 5 and 9

| Molecule | LD₅₀ Value (Slc:ICR mice) | Survival days (mean ± standard deviation) (L1210 Mouse Leukemia; [4]) | T/C (%) (L1210 Mouse Leukemia; [4]) | Survival days (mean ± standard deviation) (L1210 Mouse Leukemia; [5]) | T/C (%) (L1210 Mouse Leukemia; [5]) | Survival days (mean ± standard deviation) (L1210 Mouse Leukemia; [6]) | T/C (%) (L1210 Mouse Leukemia; [6]) | Survival days (mean ± standard deviation) (L1210 Mouse Leukemia; [7]) | T/C (%) (L1210 Mouse Leukemia; [7]) | Survival days (mean ± standard deviation) (L1210 Mouse Leukemia; [8]) | T/C (%) (L1210 Mouse Leukemia; [8]) | Survival days (mean ± standard deviation) (L1210 Mouse Leukemia; [9]) | T/C (%) (L1210 Mouse Leukemia; [9]) | Survival rate (L1210 Mouse Leukemia; [4]) | Survival rate (L1210 Mouse Leukemia; [5]) | Survival rate (L1210 Mouse Leukemia; [6]) | Survival rate (L1210 Mouse Leukemia; [7]) | Survival rate (L1210 Mouse Leukemia; [8]) | Survival rate (L1210 Mouse Leukemia; [9]) | also measured |
| --- | --- | --- | --- | --- | --- | --- | --- | --- | --- | --- | --- | --- | --- | --- | --- | --- | --- | --- | --- | --- |
| cis-diamminedichloroplatinum (II) [CDDP, reference compound] | 15.3 mg/kg | – | – | – | – | – | – | – | – | – | – | – | – | – | – | – | – | – | – | Survival days (mean ± standard deviation) (L1210 Mouse Leukemia; [1]): 15.2 ± 1.9 days and 12.0 ± 3.0 days and 13.0 ± 3.1 days and 10.5 ± 1.8 days; T/C (%) (L1210 Mouse Leukemia; [1]): 181% and 143% and 153% and 125%; Survival days (mean ± standard deviation) (L1210 Mouse Leukemia; [2]): 18.5 ± 6.0 days and 14.3 ± 2.9 days and 18.2 ± 0.4 days and 15.5 ± 1.4 days; T/C (%) (L1210 Mouse Leukemia; [2]): 220% and 170% and 214% and 185%; Survival days (mean ± standard deviation) (L1210 Mouse Leukemia; [3]): 17.0 ± 2.2 days and 15.5 ± 2.1 days and 20.2 ± 4.8 days and 22.3 ± 3.9 days; T/C (%) (L1210 Mouse Leukemia; [3]): 202% and 185% and 238% and 266%; Survival rate (L1210 Mouse Leukemia; dose 2.5 mg/kg i.p. on Day 1, 5 and 9): 0/6; Survival rate (L1210 Mouse Leukemia; [2]): 1/6 and 0/6; Survival rate (L1210 Mouse Leukemia; [3]): 0/6 and 1/6 |
| [Pt(trans-ℓ-1,2-diaminocyclohexane)] (3-acetyl-6-methyltetrahydropyran-2,4-dione)₂·H₂O [Example 1] | 98 mg/kg | 8.5 ± 0.5 days | 101% | 11.5 ± 1.2 days | 137% | 14.2 ± 3.2 days | 169% | 17.0 ± 3.0 days | 202% | 15.5 ± 5.0 days | 185% | 6.0 days | 71% | 0/6 | 0/6 | 0/6 | 0/6 | 0/6 | 0/6 | – |
| N.N.O=C([O-])C1(C(=O)[O-])CCC1.[Pt+2] [CBDCA, Platinum(II) cis-diamine-1,1-cyclobutanedicarboxylate, reference compound] | – | 8.3 ± 0.5 days | 98% | 9.3 ± 0.5 days | 109% | 10.1 ± 1.3 days | 119% | 13.1 ± 2.3 days | 156% | 14.1 ± 3.7 days | 166% | 9.6 ± 0.7 days | 113% | 0/10 | 0/10 | 0/10 | 0/10 | 0/10 | 0/10 | – |
| [Pt(trans-ℓ-1,2-diaminocyclohexane)] (3-acetyl-6-methyl-2H-pyran-2,4(3H)-dione)₂·H₂O [Example 2] | 61 mg/kg | 8.7 ± 0.5 days | 104% | 13.8 ± 3.6 days | 164% | 19.7 ± 7.5 days | 235% | 10.0 ± 1.1 days | 119% | 6.3 ± 2.0 days | 75% | 2.8 ± 1.6 days | 33% | 0/6 | 0/6 | 1/6 | 0/6 | 0/6 | 0/6 | – |

Source: patent publication EP0337459A2, “Platinum complex, process for preparing same and antitumor agent” (TORAY INDUSTRIES, INC., priority 1988, dated 1989)
